Experimental findings from patent publication US12116362B2, “Monocyclic compounds useful as GPR120 modulators” (Valo Health, Inc., priority 2016, dated 2024) are described below.

In the test the target is T1, human GPR120 (Homo sapiens, UniProt Q5NUL3).
T1 construct: host or cells: CHO-K1
The experiment in a line: GPR120 β-Arrestin Recruitment Assay (PathHunter, CHO-K1 cells). The following applies: for EC50: read-out: β-Arr pEC50 (converted); for activation at 10 µM: CHO-K1, read-out: percent activation at a single concentration (printed in the β-Arr pEC50 column). It counts as cell-based. The source says:
This in vitro assay tests compounds' ability to activate intracellular signaling via 3-Arrestin recruitment to heterologously expressed human GPR120. This functional cellular assay utilizes enzyme fragment complementation with β-galactosidlase (β-gal) as a functional reporter (DiscoveRx PathlHunter® β-Arrestin assay platform). The human (GPR120 receptor (GenBank accession Number NM_181745) was fused in frame with the small enzyme fragment ProLink™ and co-expressed in CHO-K1 cells with a fusion protein of β-Arrestin 2 and the larger, N-terminal deletion mutant of β-gal. Activation by a GPR120 agonist stimulates binding of β-arrestin to the ProLink-tagged GPCR and forces complementation of the two enzyme fragments, resulting in the formation of an active β-gal enzyme. This interaction leads to an increase in enzyme activity that can be measured using chemiluminescent PathHunter® Detection Reagents.
One day prior to the assay, cells were seeded in a total volume of 20 μl of growth medium into white walled 384-well microplates and incubated at 37° C./5% CO2 overnight. On the day of the assay, growth medium was removed and 20 μl assay buffer (HBSS+10 mM HEPES+0.1% heat-inactivated BSA) were added to each well.
Test compounds were dissolved in 100% DMSO to a concentration of 10 mM to provide stock solutions. Serial dilutions were performed from stock solutions into assay buffer to obtain intermediate concentrations of 5-fold higher than the concentrations to be tested. 5 μl of the 5× compound solutions were added to the cells and the assay plates were incubated at 37° C. for 90 minutes. The final concentration of compounds tested in the assay ranged from 1.5 nM to 100 μM. Following incubation, 12.5 μl of PathHunter® detection reagent were added to each well, and plates were incubated at room temperature for 60 minutes. Chemiluminescence was read using an EnVision plate reader (PerkinElmer), raw data were expressed as relative light units (RLU).
To determine agonist potencies (EC50 values), non-linear least-squares curve fits of the raw data (RLU) were performed in the GraphPad Prism software package, using the 4-parameter model with variable Hill Slope:
Reported below in Table 1 are pEC50 values (pEC50=−log(EC50) from curve fit) for compounds of Formula I in this assay, β-Arr pEC50 Alternatively, percent activation at a single concentration is reported.
In general terms: Activated receptors often draw arrestin, which recruitment assays turn into a signal.

The mark [1] stands for this setting: pEC50=−log(EC50) from curve fit, CHO-K1 cells, 90 min incubation.

T1 sequence (Q5NUL3 1-377 isoform Q5NUL3-1): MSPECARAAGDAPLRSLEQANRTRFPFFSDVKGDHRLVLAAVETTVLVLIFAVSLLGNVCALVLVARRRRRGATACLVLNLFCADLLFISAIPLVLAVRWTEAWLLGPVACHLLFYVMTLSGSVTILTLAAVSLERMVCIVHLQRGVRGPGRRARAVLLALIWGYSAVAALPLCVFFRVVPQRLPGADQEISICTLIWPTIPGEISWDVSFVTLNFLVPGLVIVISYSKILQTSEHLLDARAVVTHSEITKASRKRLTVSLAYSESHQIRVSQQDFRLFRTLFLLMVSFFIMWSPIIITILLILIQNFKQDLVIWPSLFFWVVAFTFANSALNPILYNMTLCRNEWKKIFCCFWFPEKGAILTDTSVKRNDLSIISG
T1 sequence (P32121 whole entry partner): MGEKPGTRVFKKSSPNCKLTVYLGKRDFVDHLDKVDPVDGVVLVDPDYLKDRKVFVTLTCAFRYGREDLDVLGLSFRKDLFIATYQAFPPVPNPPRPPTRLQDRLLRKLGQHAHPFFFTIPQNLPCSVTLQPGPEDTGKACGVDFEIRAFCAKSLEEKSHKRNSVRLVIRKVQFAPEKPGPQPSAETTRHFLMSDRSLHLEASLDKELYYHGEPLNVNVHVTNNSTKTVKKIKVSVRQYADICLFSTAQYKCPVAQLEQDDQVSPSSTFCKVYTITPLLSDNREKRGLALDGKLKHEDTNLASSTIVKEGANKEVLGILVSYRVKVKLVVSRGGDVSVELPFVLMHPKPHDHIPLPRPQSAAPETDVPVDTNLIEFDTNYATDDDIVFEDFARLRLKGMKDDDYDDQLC

In the case of `O=S1(=O)c2cccc(Cl)c2CN1c1ccnc(Oc2cccnc2)n1` [Compound 3], the EC50 under setting [1] was over 31.6 µM.
For the compound `O=C1c2ncccc2CN1c1ccnc(Oc2cccnc2)n1` [Compound 10], the EC50 under setting [1] was over 31.6 µM.
As to `O=S1(=O)c2ccccc2CN1c1ccnc(OC2CC(F)(F)C2)n1` [Compound 7], the EC50 under setting [1] is 12.6 µM.
Take `O=S1(=O)c2ccccc2CN1c1ncnc(Oc2cccnc2)n1` [Compound 146]: under setting [1], the EC50 is 15.8 µM.
In the case of `COc1ccc(-c2cc(N3Cc4ccccc4S3(=O)=O)nc(Oc3cccnc3)n2)cc1` [Compound 85], the EC50 under setting [1] is over 31.6 µM.
`O=S1(=O)c2cc(Cl)ccc2CN1c1ccnc(Oc2cccnc2)n1` [Compound 4]: the EC50 under setting [1] is over 31.6 µM.
For the compound `CC1(C)c2ccccc2S(=O)(=O)N1c1ccnc(Oc2cccnc2)n1` [Compound 6], under setting [1], the EC50 was over 10 µM.
Regarding `Cc1cccc2c1CN(c1nccc(Oc3cccnc3)n1)C2` [Compound 118], the EC50 under setting [1] was 1 µM.
Turning to `O=S1(=O)c2ccccc2CN1c1ccnc(Oc2ccc(OC(F)(F)F)cc2Cl)n1` [Compound 57], the EC50 under setting [1] is 1 µM.
For the compound `O=C1c2ccccc2CN1c1nccc(Oc2cccnc2)n1` [Compound 117], the EC50 under setting [1] is over 10 µM.
In the case of `Cc1cc(Oc2cccnc2)nc(N2Cc3cccnc3C2=O)c1` [Compound 135], the EC50 under setting [1] is over 10 µM.
In the case of `O=S1(=O)c2ccccc2CN1c1ccnc(OCC2CCC2)n1` [Compound 69], under setting [1], the EC50 was 3.98 µM.
Still for that read-out and setting: the result for `O=S1(=O)c2ccccc2CN1c1cccc(Oc2ccccc2Cl)n1` [Compound 124] reads over 31.6 µM; that for `COc1ccc2c(c1)CN(c1nccc(Oc3cccnc3)n1)S2(=O)=O` [Compound 116], 39.8 µM; that for `CN(C)c1cccc(Oc2nccc(N3Cc4ccccc4S3(=O)=O)n2)c1` [Compound 23], 3.16 µM.
For `N#Cc1ccc(Oc2nccc(N3Cc4ccccc4S3(=O)=O)n2)cc1` [Compound 40], the EC50 under setting [1] was over 10 µM.
Same read-out and setting: the figure for `O=S1(=O)c2ccccc2CN1c1ccnc(Oc2ccc(-n3cncn3)cc2)n1` [Compound 48] is over 10 µM; for `Cc1cc(N2Cc3ccccc3S2(=O)=O)nc(Oc2ccccc2)n1` [Compound 107] it is 0.794 µM; for `COc1cc(N2Cc3ccccc3S2(=O)=O)nc(Oc2ccc(Cl)cc2)n1` [Compound 95] it is 0.398 µM.
Regarding `NC(=O)COc1nccc(N2Cc3ccccc3S2(=O)=O)n1` [Compound 75], the EC50 under setting [1] was over 31.6 µM.
Regarding `Cc1cc(C)c(Oc2nccc(N3Cc4ccccc4S3(=O)=O)n2)cn1` [Compound 53], under setting [1], the EC50 is over 10 µM.
Regarding `O=S1(=O)c2ccccc2CN1c1cc(C(F)(F)F)cc(Oc2cccnc2)n1` [Compound 140], under setting [1], the EC50 was 1 µM.
As to `O=S1(=O)c2ccccc2CN1c1ccnc(OCc2cccnc2)n1` [Compound 71], the activation at 10 µM came out at 1%.
In the case of `Cc1cc(Oc2cccnc2)nc(N2Cc3ccccc3S2(=O)=O)c1` [Compound 136], the EC50 under setting [1] was 0.631 µM.
`CNC(=O)c1cc(Oc2ccc(Cl)cc2)nc(N2Cc3ccccc3S2(=O)=O)c1` [Compound 137]: the EC50 under setting [1] was 2.51 µM.
On the same count and under the same terms, the result for `COc1ccc2c(c1Cl)S(=O)(=O)N(c1ccnc(Oc3cccnc3)n1)C2` [Compound 5] reads over 10 µM; that for `Cc1cc(Oc2cccnc2)nc(N2Cc3ccccc3S2(=O)=O)n1` [Compound 115], 6.31 µM.
Take `CC(=O)N1CCCC(Oc2nccc(N3Cc4ccccc4S3(=O)=O)n2)C1` (stereo not drawn) [Compound 66]: the EC50 under setting [1] is over 10 µM.
For the compound `O=S1(=O)c2ccccc2CN1c1ccnc(OC2CCOC2)n1` (stereo not drawn) [Compound 65], the EC50 under setting [1] is over 10 µM.
In the case of `O=S1(=O)c2ccccc2CN1c1cc(C(F)(F)F)cc(OC2CC(F)(F)C2)n1` [Compound 141], the EC50 under setting [1] is 6.31 µM.
The same measure, in the same setting: the result for `COc1cc(N2Cc3ccccc3S2(=O)=O)nc(Oc2ccccc2)n1` [Compound 100] reads 0.158 µM.
For `O=S1(=O)c2ccccc2CN1c1ccnc(OCc2ccncc2)n1` [Compound 73], the EC50 under setting [1] was over 10 µM.
In the case of `O=S1(=O)c2ccccc2CN1c1ccnc(Oc2cnc3ccccc3c2)n1` [Compound 26], the EC50 under setting [1] is 12.6 µM.
Still for that read-out and setting: the result for `CS(=O)(=O)N1CC(Oc2nccc(N3Cc4ccccc4S3(=O)=O)n2)C1` [Compound 109] reads over 31.6 µM; that for `O=S1(=O)c2ccccc2CN1c1ccnc(Oc2ccc(Oc3ccccc3)cc2)n1` [Compound 43], over 31.6 µM.
On to `O=S1(=O)c2ccccc2CN1c1ccnc(OCc2ccccc2)n1` [Compound 70], for which the EC50 under setting [1] is 15.8 µM.
For `COc1cc(Oc2ccccc2)nc(N2Cc3ccccc3S2(=O)=O)n1` [Compound 102], the EC50 under setting [1] was 0.794 µM.
Consider `Cc1cc(Oc2ccccc2)nc(N2Cc3ccccc3S2(=O)=O)n1` [Compound 105], for which the EC50 under setting [1] was 2.51 µM.
For `Cc1cc(N2Cc3ccccc3S2(=O)=O)nc(OC2CC(F)(F)C2)n1` [Compound 91], under setting [1], the EC50 is 3.98 µM.
Consider `Cc1nc(Oc2ccc(Cl)cc2)nc(N2Cc3ccccc3S2(=O)=O)n1` [Compound 144], for which the EC50 under setting [1] is 2 µM.
Regarding `CC1(C)c2ccccc2CN1c1ccnc(Oc2cccnc2)n1` [Compound 2], the activation at 10 µM was 18%.
Consider `CNC(=O)c1cc(N2Cc3ccccc3S2(=O)=O)nc(Oc2cccnc2)n1` [Compound 88], for which the EC50 under setting [1] is over 10 µM.
Still for that read-out and setting: the result for `COc1ccc2c(c1)CN(c1ccnc(Oc3cccnc3)n1)C2=O` [Compound 12] reads over 31.6 µM.
Consider `O=C1c2ncccc2CN1c1cccc(Oc2cccnc2)n1` [Compound 127], for which the EC50 under setting [1] was over 31.6 µM.
With `COc1ccc2c(c1)C(=O)N(c1ccnc(Oc3cccnc3)n1)C2` [Compound 11], under setting [1], the EC50 was over 10 µM.
For `CN(C)C(=O)c1cc(Oc2ccc(Cl)cc2)nc(N2Cc3ccccc3S2(=O)=O)c1` [Compound 139], under setting [1], the EC50 is over 10 µM.
Turning to `CC(=O)Nc1cccc(Oc2nccc(N3Cc4ccccc4S3(=O)=O)n2)c1` [Compound 24], the activation at 10 µM was determined as 1%.
On to `Cc1cc(Oc2ccc(F)cc2)nc(N2Cc3ccccc3S2(=O)=O)n1` [Compound 104], for which the EC50 under setting [1] is 3.98 µM.
For the compound `c1cncc(Oc2ccnc(N3Cc4ccccc4C3)n2)c1` [Compound 14], the activation at 10 µM worked out at 8%.
As for `CC(=O)N1CCC(Oc2nccc(N3Cc4ccccc4S3(=O)=O)n2)C1` (stereo not drawn) [Compound 112], the EC50 under setting [1] was over 31.6 µM.
On to `N#Cc1cc(N2Cc3ccccc3S2(=O)=O)nc(Oc2cccnc2)n1` [Compound 81], for which the EC50 under setting [1] is 6.31 µM.
As to `Cc1ncccc1Oc1nccc(N2Cc3ccccc3S2(=O)=O)n1` [Compound 17], the activation at 10 µM was found to be 4%.
For `Cc1cc(Cl)cc(Oc2nccc(N3Cc4ccccc4S3(=O)=O)n2)c1` [Compound 46], under setting [1], the EC50 was 5.01 µM.
For `Cc1cc(OC2CC(F)(F)C2)nc(N2Cc3ccccc3S2(=O)=O)n1` [Compound 92], under setting [1], the EC50 was 3.16 µM.
In the case of `O=C1c2cccnc2CN1c1ccnc(Oc2cccnc2)n1` [Compound 9], under setting [1], the EC50 is over 31.6 µM.
For `CC(C)c1cc(N2Cc3ccccc3S2(=O)=O)nc(Oc2cccnc2)n1` [Compound 84], under setting [1], the EC50 was over 10 µM.
On to `O=S1(=O)c2ccccc2CN1c1ccnc(OC2CCNCC2)n1` [Compound 62], for which the EC50 under setting [1] is over 10 µM.
On to `O=S1(=O)c2ccccc2CN1c1ccnc(Oc2cncc(Br)c2)n1` [Compound 52], for which, under setting [1], the EC50 was 12.6 µM.
On to `Cc1ccc(Oc2nccc(N3Cc4ccccc4S3(=O)=O)n2)cn1` [Compound 18], for which the EC50 under setting [1] was over 10 µM.
Take `O=S1(=O)c2ccccc2CN1c1cc(C(F)(F)F)nc(Oc2ccc(F)cc2)n1` [Compound 103]: the EC50 under setting [1] is 2 µM.
Take `O=S1(=O)c2ccccc2CN1c1ccnc(Oc2cncnc2)n1` [Compound 25]: the activation at 10 µM worked out at 16%.
Turning to `O=S1(=O)c2ccccc2CN1c1ccnc(OC2CCOCC2)n1` [Compound 64], the EC50 under setting [1] is over 10 µM.
As to `O=C1Cc2ccccc2N1c1nccc(Oc2cccnc2)n1` [Compound 120], the EC50 under setting [1] was over 31.6 µM.
As for `N#Cc1ccc(Oc2nccc(N3Cc4ccccc4S3(=O)=O)n2)cn1` [Compound 55], the EC50 under setting [1] is over 10 µM.
On the same count and under the same terms, the result for `O=S1(=O)c2ccccc2CN1c1ccnc(OCC2CCCCC2)n1` [Compound 68] reads 2.51 µM; that for `CC(=O)N1CCC(Oc2nccc(N3Cc4ccccc4S3(=O)=O)n2)CC1` [Compound 111], over 10 µM.
As for `COc1ccc2c(c1)S(=O)(=O)N(c1cccc(Oc3cccnc3)n1)C2` [Compound 132], the EC50 under setting [1] was over 31.6 µM.
In the case of `Cc1nc(Oc2ccc(Cl)cc2)nc(N2Cc3ccccc3S2(=O)=O)n1` [Compound 143], the “β-Arr pEC50” value under setting [1] is listed as under 4.5.
Regarding `O=S1(=O)c2ccccc2CN1c1ccnc(-n2cnc3ccccc32)n1` [Compound 31], the activation at 10 µM was 11%.
